Assay results published in ChEMBL document CHEMBL1158433, “A novel class of H3 antagonists derived from the natural product guided synthesis of unnatural analogs of the marine bromopyrrole alkaloid dispyrin” (Bioorg Med Chem Lett, 2009).

target: T1, Histamine H3 receptor (Homo sapiens, UniProt Q9Y5N1); assay: Displacement of [3H]SMT from human histamine H3 receptor
T1 sequence (Q9Y5N1 whole entry): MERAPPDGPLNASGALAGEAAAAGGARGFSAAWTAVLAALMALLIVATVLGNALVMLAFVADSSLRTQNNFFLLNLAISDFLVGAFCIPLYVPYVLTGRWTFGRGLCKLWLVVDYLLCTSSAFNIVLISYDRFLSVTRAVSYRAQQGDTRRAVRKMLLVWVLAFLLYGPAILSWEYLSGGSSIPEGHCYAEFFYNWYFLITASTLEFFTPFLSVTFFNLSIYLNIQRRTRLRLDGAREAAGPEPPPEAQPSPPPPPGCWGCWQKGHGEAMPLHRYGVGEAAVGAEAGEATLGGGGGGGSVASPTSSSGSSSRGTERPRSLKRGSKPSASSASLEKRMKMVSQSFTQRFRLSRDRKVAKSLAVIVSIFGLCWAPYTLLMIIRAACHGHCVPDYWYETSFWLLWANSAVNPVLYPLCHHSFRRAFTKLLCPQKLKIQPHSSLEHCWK

Row | IC50 [nM] | Ki [nM] | SMILES
1 | 4560 | – | CN1CCCC(COc2ccc(CCNC(=O)c3ccc(Br)o3)cc2Br)C1 (centres undefined)
2 | 3730 | 1250 | CN1CCCC(COc2ccc(CCNC(=O)c3cc(Br)cs3)cc2Br)C1 (centres undefined)
3 | 3620 | 1650 | CN1CCCC(COc2ccc(CCNC(=O)c3cccn3C)cc2Br)C1 (centres undefined)
4 | – | 2290 | CN(C)CCCOc1ccc(CCNC(=O)c2ccc(Br)o2)cc1Br
5 | 30400 | 13500 | O=C(NCCc1ccc(OCCN2CCOCC2)c(Br)c1)c1cc(Br)cs1
6 | 1520 | – | CN(C)CCOc1ccc(CCNC(=O)c2cc(Br)cs2)cc1Br
7 | 710 | 310 | CC1CCCN1CCOc1ccc(CCNC(=O)c2cc(Br)cs2)cc1Br (single isomer, unassigned; enantiomer 1)
8 | 750 | 330 | CC1CCCN1CCOc1ccc(CCNC(=O)c2cc(Br)cs2)cc1Br (single isomer, unassigned; enantiomer 2)
9 | – | 2130 | CN(C)CCOc1ccc(CCNC(=O)c2cccn2C)cc1Br
10 | 59200 | 26400 | O=C(NCCc1ccc(OCCN2CCOCC2)c(Br)c1)c1ccc[nH]1
11 | – | 1550 | CN(C)CCOc1ccc(CCNC(=O)c2ccc[nH]2)cc1Br
12 | 3990 | 1760 | CN(C)CCCOc1ccc(CCNC(=O)c2cccn2C)cc1Br
13 | 2520 | 1150 | O=C(NCCc1ccc(OCCN2CCC(F)C2)c(Br)c1)c1cc(Br)cs1 (stereo in doubt; 18d)

Continued, compound first:

Row | SMILES | IC50 [nM] | Ki [nM]
14 | O=C(NCCc1ccc(OCCN2CCCC2)c(Br)c1)c1nccs1 | 70 | 30
15 | O=C(NCCc1ccc(OCCN2CCOCC2)c(Br)c1)c1cc(Br)c[nH]1 | 29100 | 12900
16 | O=C(NCCc1ccc(OCCN2CCCC2)c(Br)c1)c1cncs1 | 260 | 120
17 | O=C(NCCc1ccc(OCCN2CCOCC2)c(Br)c1)c1ccc(Br)o1 | 73200 | 32500
18 | CN(C)CCCOc1ccc(CCNC(=O)c2ccc[nH]2)cc1Br | – | 1360
19 | O=C(NCCc1ccc(OCCN2CCCC2)c(Br)c1)c1cnco1 | 80 | 30
20 | Cn1cccc1C(=O)NCCc1ccc(OCCN2CCCC2)c(Br)c1 | 310 | –
21 | CN1CCCC(COc2ccc(CCNC(=O)c3cc(Br)c[nH]3)cc2Br)C1 (centres undefined) | 2940 | 1330
22 | CN1CCCC(COc2ccc(CCNC(=O)c3ccc[nH]3)cc2Br)C1 (centres undefined) | – | 1520
23 | Cn1cccc1C(=O)NCCc1ccc(OCCN2CCOCC2)c(Br)c1 | 39600 | 17600
24 | O=C(NCCc1ccc(OCCN2CCC(F)C2)c(Br)c1)c1cc(Br)cs1 (single isomer, unassigned; enantiomer 1) | 2110 | 1100

target: T1, Histamine H3 receptor; assay: Ratio of dispyrin IC50 to compound IC50 for human histamine H3 receptor

Row | Ratio IC50 | SMILES
25 | 33 | O=C(NCCc1ccc(OCCN2CCCC2)c(Br)c1)c1nccs1
26 | 13 | O=C(NCCc1ccc(OCCN2CCCC2)c(Br)c1)c1cc(Br)cs1

target: T1, Histamine H3 receptor; assay: Ratio of dispyrin Ki to compound Ki for human histamine H3 receptor

Row | Ratio Ki | SMILES
27 | 33 | O=C(NCCc1ccc(OCCN2CCCC2)c(Br)c1)c1nccs1
28 | 13 | O=C(NCCc1ccc(OCCN2CCCC2)c(Br)c1)c1cc(Br)cs1
